Data on 14 compounds can be found in PMC9975091 (Heliyon, 2023).

The subject of one series is HepG2. Put plainly: MTT cytotoxicity assay, HepG2. In kind it is cell-based, human.
The next series deals with HCT-116. Put plainly: MTT cytotoxicity assay, HCT-116. The series is classed as cell-based. As to conditions: Homo sapiens.
A further series deals with WRL-68. Put plainly: cells. In kind it is cell-based. As to conditions: for IC50: Homo sapiens; for toxicity against normal cell line: WRL-68, result in words.
The next series concerns MCF-7. Put plainly: MTT cytotoxicity assay, MCF-7. In kind it is cell-based. As to conditions: Homo sapiens.
The test system of a further series is PC3 cells. As to conditions: read-out: IC50 proliferation rate of PC3 cells; cited from earlier work.
Setting [1] is: Homo sapiens, HepG2, 48 h, read-out: IC50 against HepG2 μM 48 h, MTT, 48 h.
[2] abbreviates: Homo sapiens, HepG2, 72 h, read-out: IC50 against HepG2 μM 72 h, MTT, 72 h.
Where [3] appears, read: HCT-116, 48 h, read-out: IC50 against HCT-116 μM 48 h.
[4] abbreviates: HCT-116, 72 h, read-out: IC50 against HCT-116 μM 72 h.
Setting [5] is: WRL68, 48 h, read-out: IC50 against WRL-68 μM 48 h.
Setting [6] is: WRL68, 72 h, read-out: IC50 against WRL-68 μM 72 h.
Setting [7] is: MCF7, 48 h, read-out: IC50 against MCF-7 μM 48 h.
Setting [8] is: MCF7, 72 h, read-out: IC50 against MCF-7 μM 72 h.

Read-outs that look alike come from different tables or passages of the source.

In the case of `O=C(Cn1cc(COc2nc(-c3ccc(Cl)cc3)nc3ccccc23)nn1)Nc1ccccc1` [Compound 8g, 2-(4-(((2-(4-chlorophenyl)quinazolin-4-yl)oxy)methyl)-1H-1,2,3-triazol-1-yl)-N-phenylacetamide], the IC50 in the series with HepG2 (setting [1]) turned out to be 38.8 µM; with HepG2 (setting [2]), 13.2 µM; in the series with HCT-116 (setting [3]), 49.2 µM; with HCT-116 (setting [4]) it was 24.5 µM; in the series with WRL-68 (setting [5]), 103 µM; in the series on WRL-68 (setting [6]) it was 85.1 µM. Moreover, the IC50 in the series on MCF-7 (setting [7]) was 67.2 µM; with MCF-7 (setting [8]), 20.9 µM.

Regarding `Cc1ccc(NC(=O)Cn2cc(COc3nc(-c4ccc(Cl)cc4)nc4ccccc34)nn2)cc1` [Compound 8i, 2-(4-(((2-(4-chlorophenyl)quinazolin-4-yl)oxy)methyl)-1H-1,2,3-triazol-1-yl)-N-(p-tolyl)acetamide], the IC50 in the series with HepG2 (setting [1]) was 55.1 µM; in the series with HepG2 (setting [2]), 10.9 µM; with HCT-116 (setting [3]), 48.1 µM; in the series with HCT-116 (setting [4]) it was 24.2 µM; in the series with WRL-68 (setting [5]), 117 µM; with WRL-68 (setting [6]), 86.4 µM. In addition, the IC50 with MCF-7 (setting [7]) amounted to 221 µM; with MCF-7 (setting [8]), 97 µM.

For the compound `COc1ccc(-c2nc(OCc3cn(CC(=O)Nc4ccccc4)nn3)c3ccccc3n2)cc1` [Compound 8a, 2-(4-(((2-(4-methoxyphenyl)quinazolin-4-yl)oxy)methyl)-1H-1,2,3-triazol-1-yl)-N-phenylacetamide], the IC50 is 17.5 µM in the series on HepG2 (setting [1]); 7.94 µM in the series on HepG2 (setting [2]); 10.7 µM in the series with HCT-116 (setting [3]); 5.33 µM with HCT-116 (setting [4]); 112 µM with WRL-68 (setting [5]); 94.1 µM with WRL-68 (setting [6]). Also, the IC50 with MCF-7 (setting [7]) stood at 38.1 µM; in the series on MCF-7 (setting [8]), 13 µM. Besides, the “toxicity against normal cell line” value with WRL-68 is reported as “limited toxicity”.

`COc1ccc(-c2nc(OCc3cn(CC(=O)Nc4ccc([N+](=O)[O-])cc4C)nn3)c3ccccc3n2)cc1` [Compound 8f, 2-(4-(((2-(4-methoxyphenyl)quinazolin-4-yl)oxy)methyl)-1H-1,2,3-triazol-1-yl)-N-(2-methyl-4-nitrophenyl)acetamide]: the IC50 with HepG2 (setting [1]) was 26.1 µM; with HepG2 (setting [2]), 9.15 µM; in the series on HCT-116 (setting [3]), 36.2 µM; with HCT-116 (setting [4]), 23.9 µM; in the series on WRL-68 (setting [5]) it was 100 µM; with WRL-68 (setting [6]), 90.3 µM. Moreover, the values for the IC50 with MCF-7 (setting [7]) and in the series on MCF-7 (setting [8]) were 21.3 µM and 18 µM, respectively. Besides, the “toxicity against normal cell line” value with WRL-68 is recorded as “limited toxicity”.

As for `COc1cc(-c2nc(OCc3cn(CC(=O)Nc4ccccc4)nn3)c3ccccc3n2)cc(OC)c1OC` [Compound 8k, N-phenyl-2-(4-(((2-(3,4,5-trimethoxyphenyl)quinazolin-4-yl)oxy)methyl)-1H-1,2,3-triazol-1-yl)acetamide], the IC50 with HepG2 (setting [1]) was 72.4 µM; in the series on HepG2 (setting [2]), 16.2 µM; in the series with HCT-116 (setting [3]), 69 µM; in the series with HCT-116 (setting [4]), 41.1 µM; with WRL-68 (setting [5]), 117 µM; in the series with WRL-68 (setting [6]), 84.4 µM. The IC50 in the series with MCF-7 (setting [7]) worked out at 24.2 µM; with MCF-7 (setting [8]), 11.3 µM.

As for `COc1cccc2c1C(=O)c1c(O)c3c(c(O)c1C2=O)C[C@@](O)(C(=O)CO)C[C@@H]3O[C@H]1C[C@H](N)[C@H](O)[C@H](C)O1` [Doxorubicin, reference compound], the IC50 with HepG2 (setting [1]) stood at 1.96 µM; in the series with HepG2 (setting [2]), 1.31 µM; in the series with HCT-116 (setting [4]), 1.21 µM; in the series with WRL-68 (setting [5]) it was 2.19 µM; in the series with WRL-68 (setting [6]) it was 1.73 µM.

As for `COc1cc(-c2nc(OCc3cn(CC(=O)Nc4ccc(C)cc4)nn3)c3ccccc3n2)cc(OC)c1OC` [Compound 8l, N-(p-tolyl)-2-(4-(((2-(3,4,5-trimethoxyphenyl)quinazolin-4-yl)oxy)methyl)-1H-1,2,3-triazol-1-yl)acetamide], the IC50 in the series with HepG2 (setting [1]) came out at 41.4 µM; in the series on HCT-116 (setting [3]) it was 64.3 µM; in the series with HCT-116 (setting [4]), 29.4 µM; in the series with WRL-68 (setting [5]), 101 µM; with WRL-68 (setting [6]), 71.3 µM; in the series on MCF-7 (setting [7]), 28.8 µM. The IC50 in the series with MCF-7 (setting [8]) was 26.5 µM.

With `COc1ccc(-c2nc(OCc3cn(CC(=O)Nc4cccc(OC)c4)nn3)c3ccccc3n2)cc1` [Compound 8e, N-(3-methoxyphenyl)-2-(4-(((2-(4-methoxyphenyl)quinazolin-4-yl)oxy)methyl)-1H-1,2,3-triazol-1-yl)acetamide], the IC50 in the series on HepG2 (setting [1]) turned out to be 46 µM; in the series with HepG2 (setting [2]), 10.2 µM; in the series on HCT-116 (setting [3]) it was 160 µM; in the series on HCT-116 (setting [4]) it was 90.6 µM; in the series with WRL-68 (setting [5]), 112 µM; with MCF-7 (setting [7]) it was 35.2 µM. Besides, the IC50 in the series with MCF-7 (setting [8]) is 23 µM.

On to `O=C(Cn1cc(COc2nc(-c3ccc(Cl)cc3)nc3ccccc23)nn1)Nc1ccc(Br)cc1` [Compound 8h, N-(4-bromophenyl)-2-(4-(((2-(4-chlorophenyl)quinazolin-4-yl)oxy)methyl)-1H-1,2,3-triazol-1-yl)acetamide], for which the IC50 in the series with HepG2 (setting [1]) was 90.5 µM; in the series on HepG2 (setting [2]), 8.55 µM; with HCT-116 (setting [3]) it was 42.3 µM; with HCT-116 (setting [4]), 41.8 µM; in the series on WRL-68 (setting [5]), 115 µM; in the series on WRL-68 (setting [6]), 89.5 µM. Also, the IC50 in the series on MCF-7 (setting [7]) was 34.1 µM; with MCF-7 (setting [8]) it was 20.6 µM.

In the case of `CNC(=O)c1cc(Oc2ccc(NC(=O)Nc3ccc(Cl)c(C(F)(F)F)c3)cc2)ccn1` [sorafenib], the IC50 with PC3 cells was 17.3 µM.

Consider `O=C(Cn1cc(COc2nc(-c3ccc(Cl)cc3)nc3ccccc23)nn1)Nc1cccc(Br)c1` [Compound 8j, N-(3-bromophenyl)-2-(4-(((2-(4-chlorophenyl)quinazolin-4-yl)oxy)methyl)-1H-1,2,3-triazol-1-yl)acetamide], for which the IC50 with HepG2 (setting [1]) is 55.8 µM; with HepG2 (setting [2]), 8.55 µM; in the series on HepG2 (read-out: IC50 against HepG2 μM 72 h, MTT, 72 h) it was 12.7 µM; with HCT-116 (setting [3]) it was 176 µM; in the series on HCT-116 (setting [4]) it was 54.2 µM; in the series with WRL-68 (setting [5]), 110 µM. Also, the IC50 turned out to be 78.6 µM with WRL-68 (setting [6]), 164 µM in the series with MCF-7 (setting [7]) and 55.8 µM in the series with MCF-7 (setting [8]).

`COc1ccc(-c2nc(OCc3cn(CC(=O)Nc4ccc(Cl)cc4)nn3)c3ccccc3n2)cc1` [Compound 8b, N-(4-chlorophenyl)-2-(4-(((2-(4-methoxyphenyl)quinazolin-4-yl)oxy)methyl)-1H-1,2,3-triazol-1-yl)acetamide]: the IC50 in the series with HepG2 (setting [1]) is 78.9 µM; with HepG2 (setting [2]) it was 19.8 µM; in the series with HCT-116 (setting [3]) it was 77.1 µM; in the series on HCT-116 (setting [4]) it was 68.6 µM; in the series with WRL-68 (setting [5]), 108 µM; with WRL-68 (setting [6]), 89.8 µM. For the same compound, the figures for the IC50 in the series on MCF-7 (setting [7]) and in the series with MCF-7 (setting [8]) were 25.9 µM and 20.9 µM, respectively.

For `COc1ccc(-c2nc(OCc3cn(CC(=O)Nc4ccc(C)cc4)nn3)c3ccccc3n2)cc1` [Compound 8d, 2-(4-(((2-(4-methoxyphenyl)quinazolin-4-yl)oxy)methyl)-1H-1,2,3-triazol-1-yl)-N-(p-tolyl)acetamide], the IC50 with HepG2 (setting [1]) amounted to 59.2 µM; in the series on HepG2 (setting [2]), 15 µM; in the series with HCT-116 (setting [3]) it was 30.1 µM; in the series on HCT-116 (setting [4]), 8.97 µM; in the series on WRL-68 (setting [5]), 113 µM; in the series on WRL-68 (setting [6]) it was 83.5 µM. For the same compound, the values for the IC50 with MCF-7 (setting [7]) and with MCF-7 (setting [8]) were 39.9 µM and 20 µM, respectively.

Regarding `COc1ccc(-c2nc(OCc3cn(CC(=O)Nc4ccc(Br)cc4)nn3)c3ccccc3n2)cc1` [Compound 8c, N-(4-bromophenyl)-2-(4-(((2-(4-methoxyphenyl)quinazolin-4-yl)oxy)methyl)-1H-1,2,3-triazol-1-yl)acetamide], the IC50 is 30.4 µM in the series on HepG2 (setting [1]); 13 µM with HepG2 (setting [2]); 47.8 µM with HCT-116 (setting [3]); 12.2 µM with HCT-116 (setting [4]); 106 µM with WRL-68 (setting [5]); 74.4 µM in the series with WRL-68 (setting [6]). For the same compound, the IC50 in the series on MCF-7 (setting [7]) turned out to be 111 µM; with MCF-7 (setting [8]) it was 62.2 µM.
